Data: article PMC5218480 (PLoS ONE, 2017)

Tested on: MV-4-11 cells
Experiment: Gene expression microarray analysis (Affymetrix PrimeView) and GSEA
Type: cell-based, human
Parameters: RFU PODN (11730768_x_at) / Fold change /veh PODN (11730768_x_at) / RFU LINC00158 (11744669_a_at) / Fold change /veh LINC00158 (11744669_a_at) / RFU DUSP10 (11751237_a_at) / Fold change /veh DUSP10 (11751237_a_at) / RFU ID3 (11757404_x_at) / Fold change /veh ID3 (11757404_x_at) / RFU PLEKHG5 (11737974_s_at) / Fold change /veh PLEKHG5 (11737974_s_at) / RFU LRRC4B (11730491_at) / Fold change /veh LRRC4B (11730491_at) / RFU GIMAP4 (11747438_a_at) / Fold change /veh GIMAP4 (11747438_a_at) / RFU KRT8 (11758183_x_at) / Fold change /veh KRT8 (11758183_x_at) / RFU CNN1 (11734310_a_at) / Fold change /veh CNN1 (11734310_a_at) / RFU VPS37D (11726825_at) / Fold change /veh VPS37D (11726825_at) / RFU C10orf10 (11716522_x_at) / Fold change /veh C10orf10 (11716522_x_at) / RFU KIR2DL2 /// KIR2DL4 /// KIR2DL5A /// KIR2DL5B /// KIR2DS1 /// KIR2DS2 /// KIR2DS3 /// KIR2DS4 /// KIR3DL3 /// KIR3DL3 /// KIR3DS1 (11738374_at) / Fold change /veh KIR2DL2 /// KIR2DL4 /// KIR2DL5A /// KIR2DL5B /// KIR2DS1 /// KIR2DS2 /// KIR2DS3 /// KIR2DS4 /// KIR3DL3 /// KIR3DL3 /// KIR3DS1 (11738374_at) / RFU C1QL1 (11718748_at) / Fold change /veh C1QL1 (11718748_at) / RFU TMPRSS4 (11747572_a_at) / Fold change /veh TMPRSS4 (11747572_a_at) / RFU HAMP (11756126_x_at) / Fold change /veh HAMP (11756126_x_at) / RFU RNFT2 (11725882_a_at) / Fold change /veh RNFT2 (11725882_a_at) / RFU NR4A2 (11747474_a_at) / Fold change /veh NR4A2 (11747474_a_at) / RFU ABCC12 (11746883_a_at) / Fold change /veh ABCC12 (11746883_a_at) / RFU TMEM136 (11760407_x_at) / Fold change /veh TMEM136 (11760407_x_at) / RFU CLDN22 /// WWC2 (11732394_at) / Fold change /veh CLDN22 /// WWC2 (11732394_at) / RFU HLA-DPB1 (11760878_x_at) / Fold change /veh HLA-DPB1 (11760878_x_at) / RFU SPINT1 (11716480_a_at) / Fold change /veh SPINT1 (11716480_a_at) / RFU GAP43 (11754022_s_at) / Fold change /veh GAP43 (11754022_s_at) / RFU A4GNT (11735810_at) / Fold change /veh A4GNT (11735810_at) / RFU PRB3 (11715151_x_at) / Fold change /veh PRB3 (11715151_x_at) / RFU TUBB4B (11761932_at) / Fold change /veh TUBB4B (11761932_at) / RFU CAPN14 (11732068_a_at) / Fold change /veh CAPN14 (11732068_a_at) / RFU TMCC2 (11721928_a_at) / Fold change /veh TMCC2 (11721928_a_at) / RFU IRGQ (11745062_a_at) / Fold change /veh IRGQ (11745062_a_at) / RFU FAM174B (11720279_a_at) / Fold change /veh FAM174B (11720279_a_at) / RFU TMPRSS4 (11748680_a_at) / Fold change /veh TMPRSS4 (11748680_a_at) / RFU FAM212B (11763350_a_at) / Fold change /veh FAM212B (11763350_a_at) / RFU PLEKHG5 (11743358_a_at) / Fold change /veh PLEKHG5 (11743358_a_at) / RFU ZSCAN30 (11745921_a_at) / Fold change /veh ZSCAN30 (11745921_a_at) / RFU CMKLR1 (11741424_a_at) / Fold change /veh CMKLR1 (11741424_a_at) / RFU LOC101060620 /// MAPK8IP1 (11723275_at) / Fold change /veh LOC101060620 /// MAPK8IP1 (11723275_at) / RFU SPTSSB (11747773_x_at) / Fold change /veh SPTSSB (11747773_x_at) / RFU PRSS12 (11739890_at) / Fold change /veh PRSS12 (11739890_at) / RFU BIN1 (11741810_x_at) / Fold change /veh BIN1 (11741810_x_at) / RFU WNT11 (11732464_a_at) / Fold change /veh WNT11 (11732464_a_at) / RFU C10orf10 (11716521_a_at) / Fold change /veh C10orf10 (11716521_a_at) / RFU C5orf56 (11738089_at) / Fold change /veh C5orf56 (11738089_at) / RFU CYB561 (11721691_x_at) / Fold change /veh CYB561 (11721691_x_at) / RFU ANKRD19P (11752326_a_at) / Fold change /veh ANKRD19P (11752326_a_at) / RFU OR2T12 /// OR2T33 /// OR2T8 (11738714_s_at) / Fold change /veh OR2T12 /// OR2T33 /// OR2T8 (11738714_s_at) / RFU VCAN (11748164_a_at) / Fold change /veh VCAN (11748164_a_at) / RFU JSRP1 (11732532_at) / Fold change /veh JSRP1 (11732532_at) / RFU KRTAP10-11 (11738290_x_at) / Fold change /veh KRTAP10-11 (11738290_x_at) / RFU MYO3A (11730013_a_at) / Fold change /veh MYO3A (11730013_a_at) / RFU EBF3 (11725865_a_at) / Fold change /veh EBF3 (11725865_a_at) / RFU CAMK2N1 (11719241_x_at) / Fold change /veh CAMK2N1 (11719241_x_at) / RFU C5orf56 (11738088_a_at) / Fold change /veh C5orf56 (11738088_a_at) / RFU OLFML3 (11715873_a_at) / Fold change /veh OLFML3 (11715873_a_at) / RFU LOC100653217 /// NTM (11731650_a_at) / Fold change /veh LOC100653217 /// NTM (11731650_a_at) / RFU MAPK11 (11762145_a_at) / Fold change /veh MAPK11 (11762145_a_at) / RFU FIZ1 (11724087_x_at) / Fold change /veh FIZ1 (11724087_x_at) / RFU OASL (11726364_x_at) / Fold change /veh OASL (11726364_x_at) / RFU SOX15 (11748057_x_at) / Fold change /veh SOX15 (11748057_x_at) / RFU CD79A (11719716_a_at) / Fold change /veh CD79A (11719716_a_at) / RFU HIST1H1D (11736915_at) / Fold change /veh HIST1H1D (11736915_at) / RFU CASKIN2 (11723855_a_at) / Fold change /veh CASKIN2 (11723855_a_at) / RFU LOC730098 (11760151_x_at) / Fold change /veh LOC730098 (11760151_x_at) / RFU OR4N2 (11742367_at) / Fold change /veh OR4N2 (11742367_at) / RFU PRRT2 (11749266_a_at) / Fold change /veh PRRT2 (11749266_a_at) / RFU SNX32 (11753110_a_at) / Fold change /veh SNX32 (11753110_a_at) / RFU CDHR5 (11726645_a_at) / Fold change /veh CDHR5 (11726645_a_at) / RFU RCAN1 (11760418_a_at) / Fold change /veh RCAN1 (11760418_a_at) / RFU FAM167A (11723789_a_at) / Fold change /veh FAM167A (11723789_a_at) / RFU FAM26E (11764081_at) / Fold change /veh FAM26E (11764081_at) / RFU ISYNA1 (11749810_s_at) / Fold change /veh ISYNA1 (11749810_s_at) / RFU ACY1 (11761880_at) / Fold change /veh ACY1 (11761880_at) / RFU 11764098_at / Fold change /veh 11764098_at / RFU SAMD14 (11745864_x_at) / Fold change /veh SAMD14 (11745864_x_at) / RFU NPB (11741838_a_at) / Fold change /veh NPB (11741838_a_at) / RFU TMPRSS6 (11731388_a_at) / Fold change /veh TMPRSS6 (11731388_a_at) / RFU KRTAP10-2 (11738614_at) / Fold change /veh KRTAP10-2 (11738614_at) / RFU ARHGAP8 /// PRR5-ARHGAP8 (11727945_x_at) / Fold change /veh ARHGAP8 /// PRR5-ARHGAP8 (11727945_x_at) / RFU KRTAP5-7 /// NADSYN1 (11734609_at) / Fold change /veh KRTAP5-7 /// NADSYN1 (11734609_at) / RFU RASL12 (11751679_a_at) / Fold change /veh RASL12 (11751679_a_at) / RFU CDKN2B (11736163_a_at) / Fold change /veh CDKN2B (11736163_a_at) / RFU PRF1 (11729649_at) / Fold change /veh PRF1 (11729649_at) / RFU, ZNF638 /// ZNF638-IT1 / Fold change vs veh, ZNF638 /// ZNF638-IT1 / RFU, PANK3 / Fold change vs veh, PANK3 / RFU, SH3YL1 / Fold change vs veh, SH3YL1 / RFU, ZEB2 / Fold change vs veh, ZEB2 / RFU, NRIP1 / Fold change vs veh, NRIP1 / RFU, PTTG1IP / Fold change vs veh, PTTG1IP / RFU, CAPN2 / Fold change vs veh, CAPN2 / RFU, MED14 / Fold change vs veh, MED14 / RFU, SNORA58 / Fold change vs veh, SNORA58 / RFU, C1orf63 / Fold change vs veh, C1orf63 / RFU, LRRFIP1 / Fold change vs veh, LRRFIP1 / RFU, NDUFAF7 / Fold change vs veh, NDUFAF7 / RFU, SLC12A2 / Fold change vs veh, SLC12A2 / RFU, IBTK / Fold change vs veh, IBTK / RFU, ESF1 / Fold change vs veh, ESF1 / Fold change vs veh, TMEM50B / RFU, TAOK1 / Fold change vs veh, TAOK1 / RFU, ACBD3 / Fold change vs veh, ACBD3 / RFU, TMA16 / Fold change vs veh, TMA16 / RFU, RWDD3 / Fold change vs veh, RWDD3 / RFU, BCAT1 / Fold change vs veh, BCAT1 / RFU, EDEM3 / Fold change vs veh, EDEM3 / RFU, TMEM33 / Fold change vs veh, TMEM33 / RFU, WDR75 / Fold change vs veh, WDR75 / RFU, AHCTF1 / Fold change vs veh, AHCTF1 / RFU, TFRC / Fold change vs veh, TFRC / RFU, ZDHHC17 / Fold change vs veh, ZDHHC17 / RFU, NOM1 / Fold change vs veh, NOM1 / RFU, ARL8B / Fold change vs veh, ARL8B / RFU, ZBTB11 / Fold change vs veh, ZBTB11 / RFU, TAMM41 / Fold change vs veh, TAMM41 / RFU, KIAA1704 /// LOC100996395 / Fold change vs veh, KIAA1704 /// LOC100996395 / RFU, ING1 / Fold change vs veh, ING1 / RFU, TRMT61B / Fold change vs veh, TRMT61B / RFU, FUBP3 / Fold change vs veh, FUBP3 / RFU, TP53 / Fold change vs veh, TP53 / RFU, TNKS2 / Fold change vs veh, TNKS2 / RFU, ZFP14 / Fold change vs veh, ZFP14 / RFU, ACTR2 / Fold change vs veh, ACTR2 / RFU, PPP3R1 / Fold change vs veh, PPP3R1 / RFU, PIK3R1 / Fold change vs veh, PIK3R1 / RFU, HNRNPA1 / Fold change vs veh, HNRNPA1 / RFU, RNF170 / Fold change vs veh, RNF170 / RFU, ZNF28 / Fold change vs veh, ZNF28 / RFU, RNGTT / Fold change vs veh, RNGTT / RFU, OGT / Fold change vs veh, OGT / RFU, BRD1 / Fold change vs veh, BRD1 / RFU, MARS / Fold change vs veh, MARS / RFU, ZNF655 / Fold change vs veh, ZNF655 / RFU, FAHD1 / Fold change vs veh, FAHD1 / RFU, BDP1 / Fold change vs veh, BDP1 / RFU, LRRCC1 / Fold change vs veh, LRRCC1 / RFU, ARID1A / Fold change vs veh, ARID1A / RFU, ZNF146 / Fold change vs veh, ZNF146 / RFU, ZNF330 / Fold change vs veh, ZNF330 / RFU, GPN3 / Fold change vs veh, GPN3 / RFU, C9orf123 / Fold change vs veh, C9orf123 / RFU, N4BP2L2 / Fold change vs veh, N4BP2L2 / RFU, ARFIP1 / Fold change vs veh, ARFIP1 / RFU, FAM179B / Fold change vs veh, FAM179B / RFU, BCL10 / Fold change vs veh, BCL10 / RFU, UHRF1BP1L / Fold change vs veh, UHRF1BP1L / RFU, BET1 / Fold change vs veh, BET1 / RFU, CNOT2 / Fold change vs veh, CNOT2 / RFU, ZNF268 / Fold change vs veh, ZNF268 / Fold change vs veh, ZNF507 / RFU, DGCR2 / Fold change vs veh, DGCR2 / RFU, WDSUB1 / Fold change vs veh, WDSUB1 / Fold change vs veh, HSP90B1 /// MIR3652 / RFU, ADSS / Fold change vs veh, ADSS / RFU, GK / Fold change vs veh, GK / RFU, ZNF148 / Fold change vs veh, ZNF148 / RFU, TAF9 / Fold change vs veh, TAF9 / RFU, SLC1A5 / Fold change vs veh, SLC1A5 / RFU, SLMO2 / Fold change vs veh, SLMO2 / RFU, ABCC4 / Fold change vs veh, ABCC4 / RFU, LOC101060439 /// RAP1B / Fold change vs veh, LOC101060439 /// RAP1B / RFU, RFX7 / Fold change vs veh, RFX7 / RFU, GTPBP10 / Fold change vs veh, GTPBP10 / RFU, CNEP1R1 / Fold change vs veh, CNEP1R1 / RFU, BIVM-ERCC5 /// ERCC5 / Fold change vs veh, BIVM-ERCC5 /// ERCC5 / RFU, ILF3 / Fold change vs veh, ILF3 / RFU 11762660_at / Fold change /veh 11762660_at / RFU VCAN (11757783_s_at) / Fold change /veh VCAN (11757783_s_at) / RFU DDX43 (11728927_at) / Fold change /veh DDX43 (11728927_at) / RFU KRT8 (11758188_x_at) / Fold change /veh KRT8 (11758188_x_at) / RFU NKD1 (11759106_at) / Fold change /veh NKD1 (11759106_at) / RFU SRD5A1 (11742802_a_at) / Fold change /veh SRD5A1 (11742802_a_at) / RFU TPSAB1 /// TPSB2 (11721975_s_at) / Fold change /veh TPSAB1 /// TPSB2 (11721975_s_at) / RFU GSTM3 (11746129_a_at) / Fold change /veh GSTM3 (11746129_a_at) / RFU IL23R (11737362_x_at) / Fold change /veh IL23R (11737362_x_at) / RFU TMEM51 (11727254_a_at) / Fold change /veh TMEM51 (11727254_a_at) / RFU PIWIL2 (11732686_x_at) / Fold change /veh PIWIL2 (11732686_x_at) / RFU ORM1 (11744905_x_at) / Fold change /veh ORM1 (11744905_x_at) / RFU CCDC152 (11743942_at) / Fold change /veh CCDC152 (11743942_at) / RFU ECM1 (11717891_a_at) / Fold change /veh ECM1 (11717891_a_at) / RFU IL23R (11748794_a_at) / Fold change /veh IL23R (11748794_a_at) / RFU TNFAIP8L3 (11732012_x_at) / Fold change /veh TNFAIP8L3 (11732012_x_at) / RFU MBOAT4 (11741988_at) / Fold change /veh MBOAT4 (11741988_at) / RFU 11764193_at / Fold change /veh 11764193_at / RFU TMEM53 (11763286_at) / Fold change /veh TMEM53 (11763286_at) / RFU MAGEB2 (11727129_at) / Fold change /veh MAGEB2 (11727129_at) / RFU TMEM200A (11744735_a_at) / Fold change /veh TMEM200A (11744735_a_at) / RFU CCDC152 (11751479_a_at) / Fold change /veh CCDC152 (11751479_a_at) / RFU FAM211A (11726209_a_at) / Fold change /veh FAM211A (11726209_a_at) / RFU RGS16 (11746705_a_at) / Fold change /veh RGS16 (11746705_a_at) / RFU VCAN (11755009_s_at) / Fold change /veh VCAN (11755009_s_at) / RFU RHOB (11743442_s_at) / Fold change /veh RHOB (11743442_s_at) / RFU RGS16 (11720943_a_at) / Fold change /veh RGS16 (11720943_a_at) / RFU RGS16 (11720944_at) / Fold change /veh RGS16 (11720944_at) / RFU, VPS4B / Fold change vs veh, VPS4B / RFU, CREB1 / Fold change vs veh, CREB1 / RFU, DNAJC13 / Fold change vs veh, DNAJC13 / RFU, GNAQ / Fold change vs veh, GNAQ / RFU, CDK5R1 / Fold change vs veh, CDK5R1 / RFU, ZRANB3 / Fold change vs veh, ZRANB3 / RFU, CUL4A / Fold change vs veh, CUL4A / RFU, CCNY / Fold change vs veh, CCNY / RFU, UFL1 / Fold change vs veh, UFL1 / RFU, COG3 / Fold change vs veh, COG3 / RFU, DIAPH2 / Fold change vs veh, DIAPH2 / RFU, SKA2 / Fold change vs veh, SKA2 / RFU, AFF3 / Fold change vs veh, AFF3 / RFU, LMF1 / Fold change vs veh, LMF1 / RFU, IPO11 / Fold change vs veh, IPO11 / RFU, DFFB / Fold change vs veh, DFFB / RFU, FOXP1 / Fold change vs veh, FOXP1 / RFU, CARD8 / Fold change vs veh, CARD8 / RFU, STRN3 / Fold change vs veh, STRN3 / RFU, ADK / Fold change vs veh, ADK / RFU, RASSF2 / Fold change vs veh, RASSF2 / RFU, WIPF1 / Fold change vs veh, WIPF1 / RFU, LARP1B / Fold change vs veh, LARP1B / RFU, RASA1 / Fold change vs veh, RASA1 / RFU, RB1 / Fold change vs veh, RB1 / RFU, PPFIA1 / Fold change vs veh, PPFIA1 / RFU, MAT2A / Fold change vs veh, MAT2A / RFU, CCT5 / Fold change vs veh, CCT5 / RFU, WDR92 / Fold change vs veh, WDR92 / RFU, CUX1 / Fold change vs veh, CUX1 / RFU, TTC7A / Fold change vs veh, TTC7A / RFU, TMEM135 / Fold change vs veh, TMEM135 / RFU, DEPTOR / Fold change vs veh, DEPTOR / RFU, CPM / Fold change vs veh, CPM / RFU, DNAJB6 / Fold change vs veh, DNAJB6 / RFU, CACNA2D3 / Fold change vs veh, CACNA2D3 / RFU, DTX4 / Fold change vs veh, DTX4 / RFU, TFCP2 / Fold change vs veh, TFCP2 / RFU, GMCL1 /// GMCL1P1 / Fold change vs veh, GMCL1 /// GMCL1P1 / RFU, AEBP2 / Fold change vs veh, AEBP2 / RFU, SNHG1 /// SNORD22 /// SNORD25 /// SNORD26 /// SNORD27 /// SNORD28 /// SNORD29 /// SNORD31 / Fold change vs veh, SNHG1 /// SNORD22 /// SNORD25 /// SNORD26 /// SNORD27 /// SNORD28 /// SNORD29 /// SNORD31 / Fold change (Aza/veh), C12orf56 (ProbeSet 11735607_a_at) / Fold change (ACY-1035/veh), C12orf56 (ProbeSet 11735607_a_at) / Fold change (Aza/veh), FGFR1OP (ProbeSet 11751329_s_at) / Fold change (ACY-1035/veh), FGFR1OP (ProbeSet 11751329_s_at) / Fold change (Aza/veh), VPS36 (ProbeSet 11739960_a_at) / Fold change (ACY-1035/veh), VPS36 (ProbeSet 11739960_a_at) / RFU SYPL1 (11715823_x_at) / Fold change /veh SYPL1 (11715823_x_at) / RFU IGFBP7 (11715501_s_at) / Fold change /veh IGFBP7 (11715501_s_at) / RFU REEP3 (11722064_at) / Fold change /veh REEP3 (11722064_at) / RFU IGLL1 (11728026_x_at) / Fold change /veh IGLL1 (11728026_x_at): dose or concentration left out as unconfirmed
Details: ProbeSet 11731461_x_at; LIST D

Nc1ncn([C@@H]2O[C@H](CO)[C@@H](O)[C@H]2O)c(=O)n1 [azacitidine] was tested, and the “Fold change vs veh, CPM” value was 0.79.
